Measurements reported in US20090247647A1, “Method of Stimulating Proteoglycan Synthesis in Cells” (priority 2006, published 2009).

Tested on: avian growth plate (GP) chondrocytes
Experiment: Proteoglycan levels (dimethylmethylene blue assay) in primary growth plate chondrocyte cultures treated with vitamin D3 metabolites
Type: cell-based, hybrid broiler-strain chickens
Method: Time and dosage-dependent effects of 1,25(OH)2 Vitamin D3 and 24,25(OH)2 Vitamin D3 on primary cultures of pre- and post-confluent avian growth plate (GP) chondrocytes were examined. Cultures were grown either in a serum-containing culture medium designed to closely mimic normal GP extracellular fluid (DATP5) or a serum-free culture medium. A variety of cellular parameters were measured including proteoglycan (PG), lactate dehydrogenase (LDH) and alkaline phosphatase (ALP) activity and calcium and phosphate mineral deposition in the extracellular matrix were also measured.
To develop the cell cultures, epiphyseal growth plates were dissected from the tibiae of a large number of 6-8-week-old hybrid broiler-strain chickens. The plates were pooled and the chondrocytes isolated. For these studies, the isolated cells were distributed into 320 identical primary cultures grown in 35 mm dishes in DMEM (2 ml per dish) with 10% fetal bovine serum for the first 3-4 days. Culture media were changed and a supplement of fresh ascorbic acid (25-50 μg/ml) added every 3-4 days for the duration of the experiments. From day 7 onward for 160 of the cultures, the medium was changed to DATP5 mineralization medium. To the other 160 dishes on day 7 the medium was changed to DMEM:HL-1 (1:1) and from day 10 onward to HL-1 serum-free medium (Biowhittaker, Walkersville, Md.). HL-1 chemically defined proprietary media contains transferrin, testosterone, sodium selenite, ethanolamine, saturated and unsaturated fatty acids, and stabilizing proteins (less than 30 μg/ml) and is supplemented with 10 mM β-glycerophosphate. […] All culture media contained 100 IU/ml of penicillin, 100 μg/ml streptomycin, and 0.25 μg/ml amphotericin B.
Administration of the vitamin D3 metabolites was initiated either before the cells attained confluence (Day 7, pre-confluent tests), or after they had become confluent (Day 14, post-confluent tests), and continued as indicated. Stock solutions (2 mM) of the vitamin D3 metabolites were prepared and further diluted in ethanol so that 2 μl of the test solution was added to 2 ml of culture medium.
To analyze biochemical activities, cells were harvested from the mm dishes in 1 ml TMT buffer (50 mM Tris, pH 7.5, 0.5 mM MgCl2, 0.05% Triton X-100), the samples being sonicated in a water-bath. Aliquots were taken from each sample for analysis of the following seven parameters: alkaline phosphatase (ALP) and lactate dehydrogenase (LDH) activities, Hoechst DNA, Lowry protein, proteoglycan (PG) and Ca^2+ and Pi mineral content. […] Bovine serum albumin was used as a standard. Proteoglycan content of the cell matrix was analyzed using the dimethylmethylene blue reagent 11 measuring the absorbency difference at 520 and 589 nm. The assay is based on the ability of the sulfated glycosaminoglycans to bind to the cationic dye, dimethylmethylene blue, in solution.
Thus within each sample, the seven parameters were analyzed and subsequently compared. Overall statistical analysis of differences between the various treatment parameters was performed using ANOVA with post hoc Tukey HSD multiple comparisons.

[1] = pre-confluent cultures, serum-containing DATP5 medium, early exposure (Day 7-17)

| SMILES | effect of high levels on proteoglycan levels (post-confluent treatment (from Day 14), both serum-containing and serum-free cultures) | effect on proteoglycan levels [1] | increase in proteoglycan levels over the control (pre-confluent cultures, serum-containing DATP5 medium, early exposure (Day 7-17), 10 nM) | effect of supra-physiological levels on proteoglycan levels (pre-confluent cultures, serum-free HL-1 medium, 10 nM) | maximal stimulation of proteoglycan levels (pre-confluent cultures, serum-free HL-1 medium, Day 24) [fold] | effect on proteoglycan (post-confluent exposure (from Day 14)) | effect on proteoglycan levels (pre-confluent cultures, serum-containing DATP5 medium, longer exposure) | concentration of maximal stimulation of proteoglycan levels (pre-confluent cultures, serum-free HL-1 medium) [nM] | effect on proteoglycan formation (pre-confluent cultures, serum-free media) | effect of supra-physiological levels on proteoglycan formation (pre-confluent cultures, serum-free media, 100 nM) | maximal effects on proteoglycan formation relative to those with 1,25(OH)2D3 (pre-confluent cultures, serum-free media, at 10 nM) |
| --- | --- | --- | --- | --- | --- | --- | --- | --- | --- | --- | --- |
| C=C1/C(=C\C=C2/CCC[C@]3(C)[C@@H]([C@H](C)CCCC(C)(C)O)CC[C@@H]23)C[C@@H](O)C[C@@H]1O [1,25(OH)2D3, 1,25 Hydroxyvitamin D3] | no longer inhibitory, but actually increased proteoglycan levels | marked dosage-dependent increase | more than four-fold | marked reduction in proteoglycan levels | ~7 |  |  |  |  |  |  |
| C=C1CC[C@H](O)C/C1=C/C=C1\CCC[C@]2(C)[C@@H]([C@H](C)CC[C@@H](O)C(C)(C)O)CC[C@@H]12 [24,25(OH)2D3, 24,25 Hydroxyvitamin D3] |  | minimal stimulation |  |  |  | only small effects | significant increases in proteoglycan levels, equal to or greater than those caused by 1,25(OH)2D3 | 10 | stimulated proteoglycan formation | inhibitory to proteoglycan formation | only about half |
